Measurements from paper PMC11685430 (Nature Communications, 2024).

Tests used:
[1] = biological target: T1, G154S hENT1 (Homo sapiens, UniProt Q99808, G154S); assay: [3H]-adenosine uptake in oocytes expressing G154S hENT1; type: cell-based; conditions: Fig 1g
T1 sequence (Q99808 1-456 G154S): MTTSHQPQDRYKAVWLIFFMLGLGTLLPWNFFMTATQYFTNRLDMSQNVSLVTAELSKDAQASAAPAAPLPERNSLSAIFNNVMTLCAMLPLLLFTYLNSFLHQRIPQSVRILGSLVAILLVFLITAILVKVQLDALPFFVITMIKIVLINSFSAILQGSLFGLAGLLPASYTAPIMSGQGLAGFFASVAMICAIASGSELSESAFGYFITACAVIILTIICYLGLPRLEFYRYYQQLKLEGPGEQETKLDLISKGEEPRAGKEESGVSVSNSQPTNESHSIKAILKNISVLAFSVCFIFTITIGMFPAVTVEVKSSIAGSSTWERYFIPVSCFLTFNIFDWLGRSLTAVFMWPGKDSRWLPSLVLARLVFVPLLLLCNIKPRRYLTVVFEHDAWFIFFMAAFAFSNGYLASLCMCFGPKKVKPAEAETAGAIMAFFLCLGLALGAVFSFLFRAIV

[2] = tested on: mice; assay: Electrocardiogram; type: in vivo, mouse
[3] = tested on: mice, formalin-induced inflammatory pain; assay: Formalin-induced acute inflammatory pain; type: in vivo, mouse; conditions: i.t., JH-ENT-01 1, 10, 100 nmol, dilazep 100 nmol
[4] = tested on: mice; assay: Rotarod test before and 60 min after i.t. delivery; type: in vivo, mouse; conditions: 60 min after i.t. 100 nmol
[5] = tested on: mice, CFA-induced inflammatory pain; assay: CFA-induced persistent inflammatory pain, von Frey test; type: in vivo, mouse; conditions: i.v., 10 mg/ml as printed; days 1, 3, 5 after CFA
[6] = tested on: mice with STZ-induced diabetic neuropathy; assay: STZ-induced diabetic neuropathy, mechanical pain; type: in vivo, mouse
[7] = Plasma and tissue pharmacokinetics after subcutaneous administration; type: in vivo; conditions: male, CD-1, mouse, plasma, sc
[8] = tested on: mice with STZ-induced diabetic neuropathy; assay: Survival of STZ mice after repeated injections; type: in vivo, mouse
[9] = tested on: spinal dorsal horn outer lamina II (IIo) neurons; assay: Patch clamp recording of sEPSCs in spinal cord slices of naive mice; type: cell-based, mouse; conditions: DPCPX alone 1 μM
[10] = tested on: A1R; assay: Reversal of JH-ENT-01 analgesia by A1R antagonist in STZ-treated mice; type: in vivo, mouse; conditions: i.t. 10 nmol, 30 min prior to JH-ENT-01 10 nmol
[11] = tested on: adenosine receptor subtypes (A1R, A2AR, A2BR, A3R); type: in vivo, mouse; conditions: i.t. 10 nmol

SMILES | preferential inhibition of wild type hENT1 over G154S [1] | effect on heart rates ([2]; i.p. 10 mg/kg and 30 mg/kg) | effect on heart rates ([2]; i.v. 30 mg/kg, first hour) | formalin-induced 2nd phase pain [3] | formalin-induced phase 1 pain ([3]; both sexes) | motor function in rotarod test [4] | paw withdrawal frequency (PWF) [5] | paw withdrawal threshold (PWT) [5] | paw withdrawal threshold (PWT) ([6]; i.t. 10 nmol) | paw withdrawal threshold (PWT) ([6]; i.v. 30 mg/kg on days 8, 10, 12 after STZ) | neuropathic pain in the STZ model ([6]; s.c. 3 x 30 mg/kg) | Cmax [7] | death / survival of mice ([8]; i.v. 30 mg/kg, 3 injections) | survival of mice ([8]; s.c. 3 x 30 mg/kg) | sEPSC frequency and amplitude [9] | effect on analgesic action of JH-ENT-01 (PWT) [10] | reversal of JH-ENT-01 analgesia [11]
COc1cc(C(=O)OCCCN2CCCN(CCCOC(=O)c3cc(OC)c(OC)c(OC)c3)CC2)cc(OC)c1OC [dilazep] | did not show any preference | no significant decrease | significant decrease | significant inhibition of phase 2 pain only when data from both sexes were combined | not affected | no significant changes in the falling latency | no effects | no effects | failed to elicit an increase in PWT | did not observe any analgesic effect | no effects | 409 ng/mL | 7 out of 16 | all mice survived |  |  | 
CCCn1c(=O)c2[nH]c(C3CCCC3)nc2n(CCC)c1=O [DPCPX] |  |  |  |  |  |  |  |  |  |  |  |  |  |  | no effects on sEPSC frequency and amplitude | prevented | reversal
